For assay [1], the target named is recombinant PI3K δ enzyme (Homo sapiens (Human), UniProt O00329). The assay can be described thus: In vitro enzyme assay (Kinase-Glo luminescent kinase assay), PI3Kδ. The assay is classed as biochemical. A digest of the protocol: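 Each recombinant human PI3K isoform at 2.29 μg/mL with 60 μM PIP2 and 10 μM ATP in HEPES pH 7.4, NaCl, CHAPS, MgCl2, DTT, 2 hours at room temperature. Remaining ATP read by Kinase-Glo luminescence relative to no-enzyme blanks.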
A general note: Kinase-Glo measures the ATP left after a reaction by luminescence.

The target in another assay is PI3Kα (Homo sapiens (Human), UniProt P42336). The assay can be described thus: In vitro enzyme assay (Kinase-Glo), selectivity, PI3Kα. To be noted: enzyme 2.29 μg/mL; ATP 10 μM; PIP2 60 μM; 2 hours. The class given is biochemical. Here is the method: (§1) The Kinase-Glo luminescent kinase assay kit (from Promega) was used to measure kinase activity. In this assay, amount of ATP remaining in solution following a kinase reaction is measured. The effect of compounds on PI3Kδ inhibition was carried out by adding 2.29 μg/ml of recombinant PI3K δ enzyme (Proteros, Germany) to reaction mixture containing assay buffer (50 mM HEPES, pH 7.4, 50 mM NaCl, 0.05% CHAPS) supplemented with 10 mM MgCl2, 5 mM DTT, 60 μM Phosphatidyl inositol bisphosphate (PIP2) and 10 μM ATP in the absence or presence of different concentrations of the compounds in a final volume of 15 μl/well, in a 384 well plate. The reaction mixture was incubated for 2 hours at room temperature. At the end of incubation period the equal volume of Kinase-Glo plus (Promega, V3772), was added per well and the luminescence was measured after incubating for 10 minutes at room temperature in dark. Results were calculated by measuring the luminescence units of test samples to blanks containing no enzyme.
(§2) The compounds of the present invention were tested for their selectivity for PI3Kδ over PI3Kα, PI3Kβ and PI3Kγ following the above assay using specific recombinant enzymes (Proteros, Germany) for each kinase. Assay condition of kinase assay (PI3Kα, PI3Kβ, PI3Kγ and PI3Kδ) was as follows. Enzyme: 2.29 μg/mL; ATP: 10 μM; PIP2 substrate: 60 μM and Reaction Time: 2 hours.

A further assay deals with PI3Kβ (Homo sapiens (Human), UniProt P42338). The assay can be described thus: In vitro enzyme assay (Kinase-Glo), selectivity, PI3Kβ. The assay is classed as biochemical. To be noted: enzyme 2.29 μg/mL; ATP 10 μM; PIP2 60 μM; 2 hours. Here is the method: as §1, §2
A further assay deals with PI3Kγ (Homo sapiens (Human), UniProt P48736). The assay can be described thus: In vitro enzyme assay (Kinase-Glo), selectivity, PI3Kγ. To be noted: enzyme 2.29 μg/mL; ATP 10 μM; PIP2 60 μM; 2 hours. The assay is classed as biochemical. Here is the method:
The Kinase-Glo luminescent kinase assay kit (from Promega) was used to measure kinase activity. In this assay, amount of ATP remaining in solution following a kinase reaction is measured. […] The reaction mixture was incubated for 2 hours at room temperature. At the end of incubation period the equal volume of Kinase-Glo plus (Promega, V3772), was added per well and the luminescence was measured after incubating for 10 minutes at room temperature in dark. Results were calculated by measuring the luminescence units of test samples to blanks containing no enzyme.
The compounds of the present invention were tested for their selectivity for PI3Kδ over PI3Kα, PI3Kβ and PI3Kγ following the above assay using specific recombinant enzymes (Proteros, Germany) for each kinase. Assay condition of kinase assay (PI3Kα, PI3Kβ, PI3Kγ and PI3Kδ) was as follows.

The subject of assay [2] is IFN-γ release in mouse splenocytes. The assay can be described thus: Phytohaemagglutinin (PHA)-induced interferon (IFN)-gamma release in mouse splenocytes. The arrangement: species or system C57BL/6 mouse. The settings on record: Splenocyte, PHA (10 μg/ml) for 48 hours, IFN-γ by ELISA, read-out: Cell Based IC50. On the procedure:
Effect of compounds on mitogen-induced IFN-γ release in mouse splenocytes was used to evaluate their potency in cell-based assay system [Blood (2010) 115: 2203-2213; Current Protocols in Immunology (2004) 3.12.1-3.12.20].
Mouse splenocytes were obtained from the spleen of a C57BL/6 mouse and plated at a density of 0.25 million cells/well in a 96 well tissue culture plate. The effect of the compounds to inhibit IFN-γ release was evaluated by treating the splenocytes with various concentrations of the test compounds followed by stimulation with PHA (10 μg/ml) for 48 hours. The IFN-γ release in the cell culture supernatant was quantified by ELISA as per the manufacturer's protocol (BD Biosciences, #555138).
Background: ELISA stands for enzyme-linked immunosorbent assay.

Where two headings read alike, the source gives them in different places.

Chain of PI3Kα (P42336 whole entry, species assumed): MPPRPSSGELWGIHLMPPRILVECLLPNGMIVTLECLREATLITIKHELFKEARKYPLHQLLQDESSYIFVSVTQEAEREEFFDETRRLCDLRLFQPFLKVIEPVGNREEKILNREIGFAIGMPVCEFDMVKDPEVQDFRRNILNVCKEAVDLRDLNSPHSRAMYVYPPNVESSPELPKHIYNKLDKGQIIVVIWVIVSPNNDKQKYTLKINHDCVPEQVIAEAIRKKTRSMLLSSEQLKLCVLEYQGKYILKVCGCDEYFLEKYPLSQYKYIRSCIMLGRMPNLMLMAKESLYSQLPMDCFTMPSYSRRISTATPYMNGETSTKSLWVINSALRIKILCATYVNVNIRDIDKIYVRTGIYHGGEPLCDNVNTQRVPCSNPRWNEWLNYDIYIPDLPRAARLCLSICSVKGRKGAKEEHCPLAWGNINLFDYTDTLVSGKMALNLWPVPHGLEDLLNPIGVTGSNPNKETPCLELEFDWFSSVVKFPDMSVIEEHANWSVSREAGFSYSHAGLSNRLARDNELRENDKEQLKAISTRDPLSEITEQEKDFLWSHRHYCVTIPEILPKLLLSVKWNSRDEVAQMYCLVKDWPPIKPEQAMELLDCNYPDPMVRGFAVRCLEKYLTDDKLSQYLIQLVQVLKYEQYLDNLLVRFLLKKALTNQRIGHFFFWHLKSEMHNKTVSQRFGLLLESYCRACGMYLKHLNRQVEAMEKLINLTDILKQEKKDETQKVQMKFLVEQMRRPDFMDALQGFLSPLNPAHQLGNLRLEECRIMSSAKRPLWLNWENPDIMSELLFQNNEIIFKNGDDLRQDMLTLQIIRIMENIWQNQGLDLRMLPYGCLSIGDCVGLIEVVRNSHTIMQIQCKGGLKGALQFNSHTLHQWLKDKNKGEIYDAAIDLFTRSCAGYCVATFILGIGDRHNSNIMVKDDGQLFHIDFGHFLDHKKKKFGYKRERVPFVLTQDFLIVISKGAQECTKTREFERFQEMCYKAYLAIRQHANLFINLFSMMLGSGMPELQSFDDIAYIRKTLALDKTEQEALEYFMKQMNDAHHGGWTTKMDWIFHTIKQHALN
Chain of PI3Kα (P27986 whole entry partner, species assumed): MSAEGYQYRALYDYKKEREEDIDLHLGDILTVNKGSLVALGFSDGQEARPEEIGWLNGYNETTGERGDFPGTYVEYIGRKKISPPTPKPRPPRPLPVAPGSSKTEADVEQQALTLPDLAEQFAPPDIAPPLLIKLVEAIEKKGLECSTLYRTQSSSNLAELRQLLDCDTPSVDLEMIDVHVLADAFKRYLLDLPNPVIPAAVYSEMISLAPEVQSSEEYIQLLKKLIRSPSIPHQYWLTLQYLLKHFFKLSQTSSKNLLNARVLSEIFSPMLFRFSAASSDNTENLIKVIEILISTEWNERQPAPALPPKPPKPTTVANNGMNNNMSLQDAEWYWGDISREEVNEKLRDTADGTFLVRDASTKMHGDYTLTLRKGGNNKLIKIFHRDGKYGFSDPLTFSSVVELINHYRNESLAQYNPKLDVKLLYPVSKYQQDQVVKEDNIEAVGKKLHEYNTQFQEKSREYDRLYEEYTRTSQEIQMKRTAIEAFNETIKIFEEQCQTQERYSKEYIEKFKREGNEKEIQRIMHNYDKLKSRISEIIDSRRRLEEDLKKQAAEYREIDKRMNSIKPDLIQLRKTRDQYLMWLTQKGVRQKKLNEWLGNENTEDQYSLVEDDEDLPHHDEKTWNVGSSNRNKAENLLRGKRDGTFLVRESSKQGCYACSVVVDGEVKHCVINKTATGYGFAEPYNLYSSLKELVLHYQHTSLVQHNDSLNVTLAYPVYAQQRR
Chain of recombinant PI3K δ enzyme (O00329 whole entry, species assumed, canonical isoform): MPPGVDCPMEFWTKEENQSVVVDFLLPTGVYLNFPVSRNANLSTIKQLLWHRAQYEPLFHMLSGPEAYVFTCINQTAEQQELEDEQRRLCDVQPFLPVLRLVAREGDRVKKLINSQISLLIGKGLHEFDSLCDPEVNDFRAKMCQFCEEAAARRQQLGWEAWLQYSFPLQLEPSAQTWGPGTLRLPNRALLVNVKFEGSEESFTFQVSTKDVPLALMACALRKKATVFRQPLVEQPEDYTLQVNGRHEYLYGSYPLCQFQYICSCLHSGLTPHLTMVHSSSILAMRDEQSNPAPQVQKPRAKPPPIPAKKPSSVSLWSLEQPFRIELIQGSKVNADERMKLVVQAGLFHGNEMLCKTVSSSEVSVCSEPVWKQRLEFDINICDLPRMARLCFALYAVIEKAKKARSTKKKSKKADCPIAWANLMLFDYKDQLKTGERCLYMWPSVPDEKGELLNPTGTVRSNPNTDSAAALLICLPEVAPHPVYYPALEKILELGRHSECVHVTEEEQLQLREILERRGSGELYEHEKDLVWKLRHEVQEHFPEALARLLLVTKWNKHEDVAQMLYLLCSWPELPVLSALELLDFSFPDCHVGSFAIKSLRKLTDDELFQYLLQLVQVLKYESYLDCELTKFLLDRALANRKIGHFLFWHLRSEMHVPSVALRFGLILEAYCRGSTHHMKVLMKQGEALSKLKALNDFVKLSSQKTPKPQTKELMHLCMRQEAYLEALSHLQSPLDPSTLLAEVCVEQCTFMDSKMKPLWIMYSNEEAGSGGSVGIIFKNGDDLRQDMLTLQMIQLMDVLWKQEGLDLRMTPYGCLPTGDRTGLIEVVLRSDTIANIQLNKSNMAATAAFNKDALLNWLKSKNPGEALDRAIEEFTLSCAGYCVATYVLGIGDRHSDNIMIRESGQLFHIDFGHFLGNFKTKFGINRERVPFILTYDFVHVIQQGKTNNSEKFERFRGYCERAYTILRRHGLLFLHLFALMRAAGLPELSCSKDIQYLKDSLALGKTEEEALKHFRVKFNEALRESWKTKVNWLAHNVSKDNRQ
Chain of recombinant PI3K δ enzyme (P27986 whole entry partner, species assumed, canonical isoform): as the sequence (P27986 whole entry partner, species assumed) above
Chain of PI3Kβ (P42338 whole entry, species assumed): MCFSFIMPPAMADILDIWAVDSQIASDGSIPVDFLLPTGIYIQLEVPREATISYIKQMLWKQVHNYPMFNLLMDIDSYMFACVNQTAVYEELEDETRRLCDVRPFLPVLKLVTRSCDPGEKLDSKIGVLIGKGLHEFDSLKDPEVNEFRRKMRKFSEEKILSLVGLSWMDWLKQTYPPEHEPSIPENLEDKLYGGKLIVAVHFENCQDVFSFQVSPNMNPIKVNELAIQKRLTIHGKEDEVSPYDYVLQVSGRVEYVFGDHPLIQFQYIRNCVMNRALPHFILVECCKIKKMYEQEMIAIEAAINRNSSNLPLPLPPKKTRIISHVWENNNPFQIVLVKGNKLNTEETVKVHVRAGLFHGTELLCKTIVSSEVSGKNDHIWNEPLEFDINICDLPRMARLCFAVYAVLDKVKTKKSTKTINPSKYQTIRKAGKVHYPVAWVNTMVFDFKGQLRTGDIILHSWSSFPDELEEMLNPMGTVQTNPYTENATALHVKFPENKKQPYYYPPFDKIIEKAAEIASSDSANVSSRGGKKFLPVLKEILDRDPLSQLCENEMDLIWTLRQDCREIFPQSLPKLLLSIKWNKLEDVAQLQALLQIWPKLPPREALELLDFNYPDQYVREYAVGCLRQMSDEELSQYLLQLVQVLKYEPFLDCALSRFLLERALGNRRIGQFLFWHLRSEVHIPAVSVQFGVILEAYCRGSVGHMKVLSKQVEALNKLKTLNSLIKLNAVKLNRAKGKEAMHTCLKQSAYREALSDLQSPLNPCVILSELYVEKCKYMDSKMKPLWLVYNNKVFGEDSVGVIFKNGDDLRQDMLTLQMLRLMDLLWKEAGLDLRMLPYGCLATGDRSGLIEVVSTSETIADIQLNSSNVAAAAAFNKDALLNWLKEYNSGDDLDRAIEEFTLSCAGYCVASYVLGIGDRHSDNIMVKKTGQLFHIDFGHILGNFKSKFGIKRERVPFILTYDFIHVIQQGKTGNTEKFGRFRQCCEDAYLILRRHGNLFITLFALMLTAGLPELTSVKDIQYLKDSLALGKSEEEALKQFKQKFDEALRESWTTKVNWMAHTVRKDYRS
Chain of PI3Kβ (P27986 whole entry partner, species assumed): as the sequence (P27986 whole entry partner, species assumed) above
Chain of PI3Kγ (P48736 whole entry, species assumed): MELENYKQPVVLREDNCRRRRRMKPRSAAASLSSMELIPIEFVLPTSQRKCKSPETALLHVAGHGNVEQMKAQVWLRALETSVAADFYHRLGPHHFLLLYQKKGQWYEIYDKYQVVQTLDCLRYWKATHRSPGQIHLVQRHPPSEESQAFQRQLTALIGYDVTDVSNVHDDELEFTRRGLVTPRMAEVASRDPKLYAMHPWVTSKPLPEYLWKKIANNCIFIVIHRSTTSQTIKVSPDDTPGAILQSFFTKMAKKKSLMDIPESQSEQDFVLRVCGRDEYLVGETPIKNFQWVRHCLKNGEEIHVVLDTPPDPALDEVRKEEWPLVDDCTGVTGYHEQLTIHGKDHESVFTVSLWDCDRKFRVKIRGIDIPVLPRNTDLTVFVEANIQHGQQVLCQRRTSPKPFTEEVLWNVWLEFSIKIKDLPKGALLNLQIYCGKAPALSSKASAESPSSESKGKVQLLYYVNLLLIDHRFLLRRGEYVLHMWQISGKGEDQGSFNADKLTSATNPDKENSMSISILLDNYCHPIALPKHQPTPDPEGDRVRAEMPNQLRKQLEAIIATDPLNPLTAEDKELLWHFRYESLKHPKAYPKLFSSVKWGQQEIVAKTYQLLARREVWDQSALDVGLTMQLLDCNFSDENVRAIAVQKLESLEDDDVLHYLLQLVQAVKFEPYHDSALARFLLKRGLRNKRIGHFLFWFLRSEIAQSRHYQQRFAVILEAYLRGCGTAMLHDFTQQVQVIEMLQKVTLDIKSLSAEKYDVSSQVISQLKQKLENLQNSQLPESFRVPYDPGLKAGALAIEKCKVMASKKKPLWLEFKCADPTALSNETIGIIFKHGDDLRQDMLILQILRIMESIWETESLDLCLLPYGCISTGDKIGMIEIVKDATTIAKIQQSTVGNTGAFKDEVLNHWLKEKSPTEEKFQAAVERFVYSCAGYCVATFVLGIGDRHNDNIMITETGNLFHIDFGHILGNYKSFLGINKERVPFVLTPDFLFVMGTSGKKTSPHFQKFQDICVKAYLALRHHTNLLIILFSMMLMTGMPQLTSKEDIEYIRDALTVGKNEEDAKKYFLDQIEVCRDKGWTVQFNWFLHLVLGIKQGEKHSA

As usually defined, the IC50 is the concentration that gives 50% inhibition. In the case of `Cc1nn(C)cc1-c1nc(N2CCOCC2)c2nc(C(=O)N3CCN(C(C)(C)C(N)=O)CC3)[nH]c2n1` [compound 8, 2-(4-{[2-(1,3-Dimethyl-1H-pyrazol-4-yl)-6-(morpholin-4-yl)-9H-purin-8-yl]carbonyl}piperazin-1-yl)-2-methylpropanamide], the 50% inhibitory concentration (IC50) in assay [1] is 0.01 µM; in assay [1] (enzyme 2.29 μg/mL, ATP 10 μM, PIP2 60 μM, 2 hours), 0.01 µM; at PI3Kα, 6.48 µM; against PI3Kβ, greater than 1 µM; against PI3Kγ, 6.54 µM; in assay [2] it was 0.422 µM.

With `Cn1cc(-c2nc(N3CCOCC3)c3nc(C(=O)N4CCN(C(C)(C)C(N)=O)CC4)[nH]c3n2)cn1` [compound 10, 2-Methyl-2-(4-{[2-(1-methyl-1H-pyrazol-4-yl)-6-(morpholin-4-yl)-9H-purin-8-yl]carbonyl}piperazin-1-yl)propanamide], in assay [2], the IC50 came to 0.27 µM.

As for `C[C@@H]1CN(C2CCN(C(=O)c3nc4c(N5CCOCC5)nc(-c5cn[nH]c5)nc4[nH]3)CC2)C[C@H](C)O1` [compound 65, {4-[cis-2,6-Dimethylmorpholin-4-yl]piperidin-1-yl}[6-(morpholin-4-yl)-2-(1H-pyrazol-4-yl)-9H-purin-8-yl]methanone], the 50% inhibitory concentration (IC50) is 0.986 µM at PI3Kα, greater than 10 µM against PI3Kβ, 9.77 µM on PI3Kγ and 0.079 µM in assay [2].

Regarding `Cc1nn(C)cc1-c1cc(N2CCOCC2)c2nc(C(=O)N3CCC(N4C[C@@H](C)O[C@@H](C)C4)CC3)[nH]c2n1` [compound 113, {4-[cis-2,6-Dimethylmorpholin-4-yl]piperidin-1-yl}[5-(1,3-dimethyl-1H-pyrazol-4-yl)-7-(morpholin-4-yl)-3H-imidazo[4,5-b]pyridin-2-yl]methanone], the IC50 on PI3Kα is greater than 1 µM; against PI3Kβ, 1.15 µM; against PI3Kγ it was greater than 1 µM; in assay [2], 0.007 µM.

As to `Cc1nn(C)cc1-c1cc(N2CCOCC2)c2nc(C(=O)N3CCC(N4C[C@@H](C)O[C@@H](C)C4)CC3)n(C)c2n1` [compound 114, {4-[cis-2,6-Dimethylmorpholin-4-yl]piperidin-1-yl}[5-(1,3-dimethyl-1H-pyrazol-4-yl)-3-methyl-7-(morpholin-4-yl)-3H-imidazo[4,5-b]pyridin-2-yl]methanone], the IC50 in assay [1] is 0.072 µM.

For the compound `Cn1cc(-c2cc(N3CCOCC3)c3nc(C(=O)NCCCN4CCOCC4)[nH]c3n2)cn1` [compound 115, 5-(1-Methyl-1H-pyrazol-4-yl)-7-(morpholin-4-yl)-N-[3-(morpholin-4-yl)propyl]-3H-imidazo[4,5-b]pyridine-2-carboxamide], the IC50 in assay [1] stood at 0.016 µM.

As for `Cn1cc(-c2cc(N3CCOCC3)c3nc(C(=O)NCCCN4CCCC4=O)[nH]c3n2)cn1` [compound 116, 5-(1-Methyl-1H-pyrazol-4-yl)-7-(morpholin-4-yl)-N-[3-(2-oxopyrrolidin-1-yl)propyl]-3H-imidazo[4,5-b]pyridine-2-carboxamide], in assay [2], the IC50 came out at 0.072 µM.

On to `Cn1cc(-c2cc(N3CCOCC3)c3nc(C(=O)N4CCC(C(C)(C)O)CC4)[nH]c3n2)cn1` [compound 117, [4-(2-Hydroxypropan-2-yl)piperidin-1-yl][5-(1-methyl-1H-pyrazol-4-yl)-7-(morpholin-4-yl)-3H-imidazo[4,5-b]pyridin-2-yl]methanone], for which the half-inhibitory concentration (IC50) in assay [1] was found to be 0.122 µM.

For the compound `C[C@@H]1CN(C2CCN(C(=O)c3nc4c(N5CCOCC5)cc(-c5cn[nH]c5)nc4[nH]3)CC2)C[C@H](C)O1` [compound 118, {4-[cis-2,6-Dimethylmorpholin-4-yl]piperidin-1-yl}[7-(morpholin-4-yl)-5-(1H-pyrazol-4-yl)-3H-imidazo[4,5-b]pyridin-2-yl]methanone], in assay [1], the IC50 worked out at 0.05 µM.

Consider `Cn1cc(-c2cc(N3CCOCC3)c3nc(C(=O)N4CC(N5CCOCC5)C4)[nH]c3n2)cn1` [compound 120, [5-(1-Methyl-1H-pyrazol-4-yl)-7-(morpholin-4-yl)-3H-imidazo[4,5-b]pyridin-2-yl][3-(morpholin-4-yl)azetidin-1-yl]methanone], for which, in assay [1], the IC50 was found to be 0.01 µM.

For the compound `Cn1cc(-c2nc(N3CCOCC3)c3nc(C(=O)N4CCC5(CC4)CNC(=O)C5)[nH]c3n2)cn1` [compound 122, 8-{[2-(1-Methyl-1H-pyrazol-4-yl)-6-(morpholin-4-yl)-9H-purin-8-yl]carbonyl}-2,8-diazaspiro[4.5]decan-3-one], in assay [1], the half-maximal inhibitory concentration (IC50) is 0.02 µM.

With `O=C(c1nc2c(N3CCOCC3)c(F)c(-c3c[nH]nc3C(F)(F)F)nc2[nH]1)N1CCC(N2CCOCC2)CC1` [compound 123, {6-Fluoro-7-(morpholin-4-yl)-5-[3-(trifluoromethyl)-1H-pyrazol-4-yl]-3H-imidazo[4,5-b]pyridin-2-yl}[4-(morpholin-4-yl)piperidin-1-yl]methanone], in assay [1], the IC50 came to 0.004 µM.

With `Cn1cc(-c2nc3[nH]c(C(=O)NCCCN4CCOCC4)nc3c(N3CCOCC3)c2F)cn1` [compound 124, 6-Fluoro-5-(1-methyl-1H-pyrazol-4-yl)-7-(morpholin-4-yl)-N-[3-(morpholin-4-yl)propyl]-3H-imidazo[4,5-b]pyridine-2-carboxamide], the IC50 in assay [1] turned out to be 0.017 µM.

As for `O=C(c1nc2c(N3CCOCC3)c(F)c(-c3cn[nH]c3)nc2[nH]1)N1CCC(N2CCOCC2)CC1` [compound 125, [6-Fluoro-7-(morpholin-4-yl)-5-(1H-pyrazol-4-yl)-3H-imidazo[4,5-b]pyridin-2-yl][4-(morpholin-4-yl)piperidin-1-yl]methanone], the IC50 in assay [1] worked out at 0.043 µM.

For the compound `Cn1cc(-c2nc3[nH]c(C(=O)N4CC(N5CCOCC5)C4)nc3c(N3CCOCC3)c2F)cn1` [compound 126, [6-Fluoro-5-(1-methyl-1H-pyrazol-4-yl)-7-(morpholin-4-yl)-3H-imidazo[4,5-b]pyridin-2-yl][3-(morpholin-4-yl)azetidin-1-yl]methanone], the IC50 in assay [1] came to 0.025 µM.

Consider `C[C@@H]1CN(C2CN(C(=O)c3nc4c(N5CCOCC5)c(F)c(-c5cnn(C)c5)nc4[nH]3)C2)C[C@H](C)O1` [compound 127, {3-[(2R,6S)-2,6-dimethylmorpholin-4-yl]azetidin-1-yl}[6-fluoro-5-(1-methyl-1H-pyrazol-4-yl)-7-(morpholin-4-yl)-3H-imidazo[4,5-b]pyridin-2-yl]methanone], for which the IC50 in assay [1] worked out at 0.036 µM.

For `CN(C(=O)c1nc2c(N3CCOCC3)nc(-c3cnn(C)c3)nc2[nH]1)C1CCN(C2COC2)CC1` [compound 132, N-Methyl-2-(1-methyl-1H-pyrazol-4-yl)-6-(morpholin-4-yl)-N-[1-(oxetan-3-yl)piperidin-4-yl]-9H-purine-8-carboxamide], the concentration for half-maximal inhibition (IC50) in assay [1] was 0.24 µM.

With `O=C(c1nc2c(N3CCOCC3)cc(-c3cn[nH]c3)nc2[nH]1)N1CCC(N2CCOCC2)CC1` [compound 133, [4-(Morpholin-4-yl)piperidin-1-yl][7-(morpholin-4-yl)-5-(1H-pyrazol-4-yl)-3H-imidazo[4,5-b]pyridin-2-yl]methanone], the concentration for half-maximal inhibition (IC50) in assay [1] was determined as 0.019 µM.

Take `O=C(c1nc2c(N3CCOCC3)cc(-c3c[nH]nc3C(F)(F)F)nc2[nH]1)N1CCC(N2CCOCC2)CC1` [compound 134, [4-(Morpholin-4-yl)piperidin-1-yl]{7-(morpholin-4-yl)-5-[3-(trifluoromethyl)-1H-pyrazol-4-yl]-3H-imidazo[4,5-b]pyridin-2-yl}methanone]: in assay [1], the 50% inhibitory concentration (IC50) is 0.003 µM.

For the compound `Cn1cc(-c2cc(N3CCOCC3)c3nc(C(=O)N4CCN(C5CCOCC5)CC4)[nH]c3n2)cn1` [compound 135, [5-(1-Methyl-1H-pyrazol-4-yl)-7-(morpholin-4-yl)-3H-imidazo[4,5-b]pyridin-2-yl][4-(tetrahydro-2H-pyran-4-yl)piperazin-1-yl]methanone], the IC50 in assay [1] came to 0.019 µM.

Values taken from patent US10174035B2, “6-morpholinyl-2-pyrazolyl-9H-purine derivatives and their use as PI3K inhibitors” (Daiichi Sankyo Company, Limited, priority 2015, dated 2019).
